Values quoted from earlier work as cited in patent US9289389B2, “Method for producing matrix-type pharmaceutical solid preparation” (OTSUKA PHARMACEUTICAL CO., LTD., priority 2007, dated 2016).

Settings: water 20° C.

Structure (SMILES) | amount of water necessary to dissolve 1 g [g]
OC[C@H]1O[C@H](O[C@H]2[C@H](O)[C@@H](O)C(O)O[C@@H]2CO)[C@H](O)[C@@H](O)[C@@H]1O (mixture of isomers) [maltose monohydrate] | 1.2
OC[C@@H](O)[C@@H](O[C@@H]1O[C@H](CO)[C@H](O)[C@H](O)[C@H]1O)[C@H](O)[C@@H](O)CO [lactitol] | 1.8

Results, then the compound that gave them:

amount of water necessary to dissolve 1 g [g] | Structure (SMILES)
1.2 | OC[C@H]1O[C@H](O[C@H]2O[C@H](CO)[C@@H](O)[C@H](O)[C@H]2O)[C@H](O)[C@@H](O)[C@@H]1O [trehalose dihydrate]
1.6 | OC[C@@H](O)[C@H](O)[C@@H](O)CO [xylitol]

Same assay, conditions: water 25° C.

amount of water necessary to dissolve 1 g | Structure (SMILES)
3.3 g | OC[C@@H](O)[C@@H](O)CO [erythritol]
0.5 mL (g) | OC[C@@H](O)[C@@H](O)[C@H](O)[C@@H](O)CO [sorbitol]

Same assay, conditions: water temperature not stated

amount of water necessary to dissolve 1 g of sugar and/or sugar alcohol | Structure (SMILES)
0.3 g | O=C(CO)[C@@H](O)[C@H](O)[C@H](O)CO [fructose]
easily soluble | OC[C@@H](O)[C@@H](O[C@H]1O[C@H](CO)[C@@H](O)[C@H](O)[C@H]1O)[C@H](O)[C@@H](O)CO [maltitol]
0.5 g | OC[C@H]1O[C@@](CO)(O[C@H]2O[C@H](CO)[C@@H](O)[C@H](O)[C@H]2O)[C@@H](O)[C@@H]1O [sucrose]
